Values quoted from earlier work in patent publication US20080255200A1, “SUBSTITUTED BENZIMIDAZOLES” (AUSPEX PHARMACEUTICALS, INC., priority 2007, published 2008).

Biological target: gastric H^+, K^+-ATPase (Homo sapiens, UniProt P20648)
Conditions: intragastric pH over 4, orally administered

Chain of gastric H^+, K^+-ATPase (P20648 whole entry): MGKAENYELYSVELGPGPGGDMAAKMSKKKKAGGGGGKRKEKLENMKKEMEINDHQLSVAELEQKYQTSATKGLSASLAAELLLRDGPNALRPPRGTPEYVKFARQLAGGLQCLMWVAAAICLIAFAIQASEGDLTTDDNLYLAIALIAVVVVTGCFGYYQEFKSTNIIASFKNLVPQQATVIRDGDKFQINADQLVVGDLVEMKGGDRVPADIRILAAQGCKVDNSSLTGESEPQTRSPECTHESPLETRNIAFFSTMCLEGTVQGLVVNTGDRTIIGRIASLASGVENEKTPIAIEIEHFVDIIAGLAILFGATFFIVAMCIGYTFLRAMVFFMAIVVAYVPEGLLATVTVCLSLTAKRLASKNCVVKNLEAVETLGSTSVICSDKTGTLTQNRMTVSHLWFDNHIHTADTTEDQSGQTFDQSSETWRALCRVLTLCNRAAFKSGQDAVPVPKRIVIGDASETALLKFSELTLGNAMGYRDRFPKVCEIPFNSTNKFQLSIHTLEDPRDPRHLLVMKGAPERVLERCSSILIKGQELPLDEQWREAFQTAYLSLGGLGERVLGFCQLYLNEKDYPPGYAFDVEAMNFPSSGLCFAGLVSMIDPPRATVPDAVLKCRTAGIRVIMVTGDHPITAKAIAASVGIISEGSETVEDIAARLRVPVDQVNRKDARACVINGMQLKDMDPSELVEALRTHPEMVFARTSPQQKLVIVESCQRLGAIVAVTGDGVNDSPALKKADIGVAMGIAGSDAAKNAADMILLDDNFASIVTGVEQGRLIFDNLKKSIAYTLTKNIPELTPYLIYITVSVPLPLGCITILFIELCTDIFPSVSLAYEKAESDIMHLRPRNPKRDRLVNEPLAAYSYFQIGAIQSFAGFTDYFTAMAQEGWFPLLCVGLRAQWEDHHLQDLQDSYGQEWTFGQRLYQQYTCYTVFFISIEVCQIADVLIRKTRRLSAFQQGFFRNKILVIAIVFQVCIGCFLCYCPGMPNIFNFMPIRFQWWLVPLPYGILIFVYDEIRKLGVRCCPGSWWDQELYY
Chain of gastric H^+, K^+-ATPase (P51164 whole entry partner): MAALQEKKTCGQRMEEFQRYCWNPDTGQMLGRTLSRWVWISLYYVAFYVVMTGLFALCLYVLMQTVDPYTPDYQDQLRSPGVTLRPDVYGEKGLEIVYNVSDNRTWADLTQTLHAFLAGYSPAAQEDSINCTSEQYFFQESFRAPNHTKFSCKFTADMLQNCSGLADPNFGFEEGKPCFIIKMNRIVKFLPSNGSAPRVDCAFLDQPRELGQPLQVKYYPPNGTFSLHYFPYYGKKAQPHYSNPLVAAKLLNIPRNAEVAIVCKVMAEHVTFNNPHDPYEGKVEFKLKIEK

COc1ccnc(C[S+]([O-])c2nc3cc(-n4cccc4)ccc3[nH]2)c1C (stereo not shown) [Ilaprazole, 2-(4-methoxy-3-methyl-pyridin-2-ylmethanesulfinyl)-5-pyrrol-1-yl-1H-benzoimidazole]
average time intragastric pH is increased to over 4: 20.5 hours
